Where two headings read alike, the source gives them in different places.
Experiments:
[1] = system: Foxp3DTR mice; assay: IL-4 after i.t. LPS, Treg-depleted Foxp3DTR mice; format: in vivo, mouse
[2] = system: WT mice; assay: IL-4 after i.t. LPS, WT mice of the Stat6 comparison; format: in vivo, mouse
Text: (§1) Animals. Male C57BL/6J and BALB/cJ wild type (WT) mice (8-10 weeks old) were purchased from Jackson Laboratories (Bar Harbor, Me.). Stat6-/- mice on a BALB/c background (gift of Dr. Alan Scott) and Foxp3DTR mice on a C57BL/6 background (gift of Dr. Alexander Y. Rudensky of Memorial Sloan-Kettering) were bred. All mice were housed at the Johns Hopkins University Asthma and Allergy Bldg, and experiments conducted under a protocol approved by the Johns Hopkins Animal Care and Use Committee.
(§2) Whether the success of IL-4 therapy required M2-specific macrophage activation was also examined To test this hypothesis, the response to i.t. LPS was compared between WT mice and Stat6^−/− mice, which were deficient in a master transcriptional regulator of M2 differentiation and activation (75). […] In contrast to reduced M2 marker expression in Stat6^−/− mice, similar CD86 expression between groups (FIG. 18E) was also observed.

[3] = system: Stat6−/− mice; assay: IL-4 after i.t. LPS, Stat6−/− mice; format: in vivo, mouse; conditions: day 5 after i.t. LPS
Text: as §1, §2

[4] = system: i.t. H2O-exposed mice; conditions: mouse, in vivo
[5] = system: Pseudomonas aeruginosa (PAO1)
[6] = mouse, cited from earlier work
[7] = in vivo; cited from earlier work
[8] = system: WT C57BL/6 mice; assay: IL-4 treatment after i.t. LPS, C57BL/6 mice
[9] = system: wild type (WT) mice; format: in vivo, mouse
[10] = system: Rag-1−/− mice; format: in vivo, mouse
[11] = system: diphtheria toxin-treated Foxp3DTR mice; format: in vivo, mouse
[12] = system: diphtheria toxin-treated WT mice; conditions: mouse, in vivo
[13] = system: A/PR/8/34 H1N1 influenza virus; assay: DAC rescue treatment in influenza model; format: in vivo, mouse
[14] = system: wild type (WT) mice
[15] = system: splenic CD4+ CD25+ cells (Tregs); assay: Lymphocyte culture with DAC, FACS phenotype of Tregs
[16] = in solution; typically; cited from earlier work
[17] = days 5-6 after i.t. LPS, vs sham
[18] = mRNA, validated by lung immunoblots, days 4 and 6
[19] = day 10 post-inoculation, vs vehicle

diphtheria toxin [reference compound]
Tregs remaining after depletion, of all CD4+ cells ([1]; spleen, lung, BAL, sham- and IL-4-treated groups): less than 0.2%

IL-4: recombinant IL-4 cytokine (PeptroTech); in the examples given i.p. as a complex with anti-IL-4 antibody
BAL neutrophils ([2]; day 5): greater than two-fold reduction
BAL protein ([2]; day 5): greater than two-fold reduction
weight ([2]; days 4 and 5, vs all other groups): significant weight gain
response to IL-4 (BAL protein and neutrophils) [3]: blunted response
BAL macrophages ([1]; day 6, vs sham): significant increase
M2 macrophage surface marker expression ([1]; day 6, vs sham): higher
BAL neutrophils ([1]; day 6 after i.t. LPS, vs sham): significantly reduced
BAL protein ([1]; day 6 after i.t. LPS, vs sham): significantly reduced
BAL total cell count ([1]; day 6 after i.t. LPS, vs sham): significantly reduced
weights ([1]; i.t. LPS 3 mg/kg, DT, IL-4 days 2 and 3, vs sham): significantly increased
Crs or DFCO [4]: no marked differences
BAL albumin ([5]; day 4, vs sham): two-fold reductions
BAL neutrophils ([5]; day 4, vs sham): four-fold reduction
MFI of MMR and Dectin-1 ([5]; day 4, vs sham): significantly increased
percentage of alveolar macrophages (F4/80+) expressing MMR and Dectin-1 ([5]; day 4, vs sham): more than doubled
BAL protein ([5]; i.t. PAO1 day 0, IL-4 days 2 and 3, day 4, vs sham): two-fold reductions
lung CFU counts ([5]; mouse, in vivo): similar
half-life in mice ([6]; in vivo): 30 min
duration of in vivo IL-4 activity [6]: about 30 minutes
safety in humans [7]: safe
weight gain ([8]; by day 6 after i.t. LPS, vs sham): improved weight gain
whole lung mRNA level of inducible nitric oxide synthase (Nos2) ([8]; day 4): reduced
CD86 level on alveolar macrophages (F4/80+) ([8]; day 6, vs sham): three-fold lower
Dectin-1 level on alveolar macrophages (F4/80+) ([8]; day 6, vs sham): four-fold higher
MMR level on alveolar macrophages (F4/80+) ([8]; day 6, vs sham): four-fold higher
Tregs recovered by BAL ([8]; day 6 after i.t. LPS, vs sham): significant three-fold increase
histopathologic evidence of lung injury ([8]; day 6 after i.t. LPS, vs sham): reduced histopathologic evidence of lung injury
diffusing capacity (DFCO) ([8]; day 6 following i.t. LPS): significantly improved
lung collagen ([8]; day 6 following i.t. LPS, vs sham): significantly reduced
BAL albumin [8, 17]: two-fold reduction
BAL neutrophils [8, 17]: five-fold reduction
BAL protein [8, 17]: as much as a three-fold reduction
survival ([8]; i.t. LPS 4 mg/kg day 0, IL-4 days 2-4, sham 57%): 92%
number of FIZZ1-expressing alveolar macrophages ([8]; i.t. LPS, vs sham): smaller, yet significant increase
number of FIZZ1-expressing interstitial macrophages ([8]; i.t. LPS, vs sham): significant two-fold increase
Arginase 1 (Arg1) level in whole lung [8, 18]: significantly increased
Fizz1 (Retn1a) level in whole lung [8, 18]: significantly increased
Ym1 (Chil3) level in whole lung [8, 18]: significantly increased

Nc1ncn([C@H]2C[C@H](O)[C@@H](CO)O2)c(=O)n1 [DAC, 5-aza-2′-deoxycytidine]
mortality ([9]; DAC from 24 h after i.t. LPS, vehicle 28.5%, P=0.029): none
body weight ([9]; after initial injury, vehicle sustained weight loss): steadily regained weight
CD25 expression in lung Tregs ([9]; data not shown): no significant change
injury parameters (BAL protein, cell count, neutrophil count, histology) ([9]; day 5 post-LPS): resolving phenotype
CD39 expression in lung Tregs ([9]; five days after injury): increased
CD44 expression in lung Tregs ([9]; five days after injury): increased
CTLA-4 expression in lung Tregs ([9]; five days after injury): modestly yet significantly increased
Ki-67 expression in lung Tregs ([9]; five days after injury): increased
Foxp3 expression in lung Tregs ([9]; five days post-LPS): increased
spleen Treg levels ([9]; five days post-LPS challenge): significantly elevated
lung CD4+Foxp3− cell frequency or phenotype ([9]; five days post-injury): did not impact
lung Treg frequency or phenotype ([9]; two days post-injury, after one DAC dose, data not shown): no effect
mortality ([10]; DAC days 1-4 after LPS, vehicle 50%, P=0.7): 44%
injury resolution ([10]; five days post-injury): could not be rescued
lung injury resolution (weight, BAL protein, cell count, neutrophil count, histology) ([11]; five days post-LPS): did not accelerate lung injury resolution
mortality ([11]; mouse, in vivo): 33%
lung injury resolution [12]: accelerated lung injury resolution
weight loss ([13]; DAC days 3-7 post-inoculation, day 10, vs vehicle): smaller magnitude of weight loss
lung Treg Foxp3 expression ([13]; day 10 post-inoculation): increase
lung Treg number ([13]; day 10 post-inoculation): increase
BAL cell count [13, 19]: decreased
BAL neutrophil count [13, 19]: decreased
BAL protein [13, 19]: decreased
histologic injury [13, 19]: decreased
lung Treg frequency ([14]; DAC 1 mg/kg i.p. days 1-4 after i.t. water, day 5, vs vehicle): increased
lung Treg Foxp3 expression ([14]; DAC i.p. days 1-4 after i.t. water, day 5, FACS): increased
lung histology ([14]; after four days of DAC or vehicle): normal
BAL protein ([14]; day 5 after i.t. water, both groups): low overall
pulmonary or overt systemic toxicity ([14]; dose that increased lung Treg number): did not cause pulmonary or overt systemic toxicity
spleen Treg levels ([14]; five days post-water treatment): significantly elevated
weight loss or mortality ([14]; i.t. water, data not shown): Neither group lost weight or experienced mortality
CD39 expression in Tregs ([15]; 100 nM DAC vs vehicle, 48 h): did not augment
CD44 expression in Tregs ([15]; 100 nM DAC vs vehicle, 48 h): increased CD44 expression
CTLA-4 expression in Tregs ([15]; 100 nM DAC vs vehicle, 48 h): modestly increased
percentage of Tregs expressing Ki-67 ([15]; 100 nM DAC vs vehicle, 48 h): higher percentage
Foxp3 expression in Tregs ([15]; 48 h culture, anti-CD3/CD28, IL-2, DAC 10 or 100 nM): augmented Foxp3 expression
difference in Foxp3 mean fluorescence intensity between DAC-induced Foxp3+ cells and Foxp3+ Tregs cultured with DAC ([15]; in vitro culture): approximately 50 fold

B1: recombinant human IL-4: 15.1 kDa globular protein, SEQ ID NO: 3 (protein)
chain: MHKCDITLQEIIKTLNSLTEQKTLCTELTVTDIFAASKNTTEKETFCRAATVLRQFYSHHEKDTRCLGATAQQFHRHKQLIRFLKRLDRNLWGLAGLNSCPVKEANQSTLENFLERLKTIMREKYSKCSS
ED50 for certain effects [16]: 0.006 to 0.03 ng/mL

— US10905706B2, “Compositions and methods to accelerate resolution of acute lung inflammation” (The Johns Hopkins University, priority 2015, dated 2021)
